Source: patent US8598155B2, “Imidazo[5,1-f][1,2,4]triazines for the treatment of neurological disorders” (Pfizer Inc., priority 2011, dated 2013)

Molecular target: human full-length PDE2A3 enzyme (Homo sapiens (Human), UniProt O00408)
Conditions: read-out: IC50 (assay validation control); PDE2A3 SPA validation; IC50 values obtained were within 3× of literature values
Protocol: Measurement of Recombinant Human PDE2A3 Inhibition by SPA Technology
In the present assay, the activity of the test substances on human full-length PDE2A3 enzyme was determined using the [^3H]-cGMP scintillation proximity assay (SPA) modified from the Amersham TRKQ7100 instructions (GE Healthcare, USA). PDE2A3 protein was obtained from FLAG purification of sf21 insect cells using standard affinity purification procedures for this tag (anti-FLAG M2, Sigma Aldrich). Briefly, the SPA assays were performed using PDE SPA yttrium silicate beads (Perkin Elmer RPNQ0024) which bind preferentially to the linear nucleotide, GMP, compared to the cyclic nucleotide, cGMP. The, ^3H-GMP product was detected using a Wallac MicroBeta scintillation counter. The reaction time was chosen with respect to the amount of time in which 10-20% of substrate was hydrolyzed by the enzyme.
The corresponding IC50 values of the compounds for the inhibition of PDE activities are determined from the concentration-effect curves by means of non-linear regression.

Sequence of human full-length PDE2A3 enzyme (O00408 whole entry): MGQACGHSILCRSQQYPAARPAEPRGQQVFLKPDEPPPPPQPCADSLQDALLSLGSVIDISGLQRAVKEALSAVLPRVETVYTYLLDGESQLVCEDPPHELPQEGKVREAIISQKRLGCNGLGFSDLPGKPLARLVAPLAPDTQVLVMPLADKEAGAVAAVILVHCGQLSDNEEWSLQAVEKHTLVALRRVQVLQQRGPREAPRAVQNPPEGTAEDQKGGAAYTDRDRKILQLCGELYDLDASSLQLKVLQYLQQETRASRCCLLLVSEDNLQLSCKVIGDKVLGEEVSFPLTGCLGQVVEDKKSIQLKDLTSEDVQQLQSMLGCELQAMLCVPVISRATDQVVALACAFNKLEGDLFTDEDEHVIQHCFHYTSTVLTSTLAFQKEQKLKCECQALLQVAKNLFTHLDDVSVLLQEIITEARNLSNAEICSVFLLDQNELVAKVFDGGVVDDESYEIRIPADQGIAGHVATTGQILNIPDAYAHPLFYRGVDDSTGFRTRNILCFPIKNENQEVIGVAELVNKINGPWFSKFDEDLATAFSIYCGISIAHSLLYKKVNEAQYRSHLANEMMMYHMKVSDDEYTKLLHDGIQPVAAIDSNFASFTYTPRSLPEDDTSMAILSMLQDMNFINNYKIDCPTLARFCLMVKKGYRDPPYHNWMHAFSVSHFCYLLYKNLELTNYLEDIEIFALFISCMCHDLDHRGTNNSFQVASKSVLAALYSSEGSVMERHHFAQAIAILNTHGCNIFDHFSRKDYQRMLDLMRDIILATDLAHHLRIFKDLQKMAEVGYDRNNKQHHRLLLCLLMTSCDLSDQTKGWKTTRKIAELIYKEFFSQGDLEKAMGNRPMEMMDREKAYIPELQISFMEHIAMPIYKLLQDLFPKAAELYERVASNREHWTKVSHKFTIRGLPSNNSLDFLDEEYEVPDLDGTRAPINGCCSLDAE

## CCCCCC[C@@H]([C@@H](C)O)n1cnc2c(N)ncnc21 (racemic) [EHNA]
  IC50: 1700 nM
